The values that follow come from US8492589B2, “Alkynyl phenyl derivative compounds for treating ophthalmic diseases and disorders” (Acucela Inc., priority 2007, dated 2013).

In the assay the target is T1, isomerase (Mus musculus, UniProt Q91ZQ5).
T1 construct: The recovery of 11-cis-retinal after bleaching can be used to estimate the activity of isomerase in vivo; from tissue; host or cells: eyes of living CD-1 and Balb/c male mice
T1 sequence (Q91ZQ5 1-533): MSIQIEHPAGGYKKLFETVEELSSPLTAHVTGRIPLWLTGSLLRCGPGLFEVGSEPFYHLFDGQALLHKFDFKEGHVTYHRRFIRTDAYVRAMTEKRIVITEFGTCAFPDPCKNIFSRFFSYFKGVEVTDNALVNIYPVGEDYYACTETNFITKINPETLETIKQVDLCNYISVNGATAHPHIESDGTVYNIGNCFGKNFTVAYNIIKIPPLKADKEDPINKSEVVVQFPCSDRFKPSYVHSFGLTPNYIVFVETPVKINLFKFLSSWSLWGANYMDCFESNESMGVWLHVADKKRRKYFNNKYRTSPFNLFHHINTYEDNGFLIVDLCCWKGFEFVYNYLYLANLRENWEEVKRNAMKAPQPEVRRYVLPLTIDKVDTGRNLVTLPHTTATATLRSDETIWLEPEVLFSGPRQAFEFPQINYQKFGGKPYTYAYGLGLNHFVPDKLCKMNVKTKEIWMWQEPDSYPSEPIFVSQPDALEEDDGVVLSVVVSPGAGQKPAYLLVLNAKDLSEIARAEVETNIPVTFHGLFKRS
Description: In vivo murine isomerase assay (recovery of 11-cis-retinal after photobleaching). Details: species or system mice. Particulars: mouse, 1 mg/kg, read-out: % Inibition. On the procedure: The capability of alkynyl phenyl-linked amine derivatives to inhibit isomerase is determined by an in vivo murine isomerase assay. Brief exposure of the eye to intense light (“photobleaching” of the visual pigment or simply “bleaching”) is known to photo-isomerize almost all 11-cis-retinal in the retina. The recovery of 11-cis-retinal after bleaching can be used to estimate the activity of isomerase in vivo. Delayed recovery, as represented by lower 11-cis-retinal oxime levels, indicates inhibition of isomerization reaction. Procedures were performed essentially as described by Golczak et al., Proc. Natl. Acad. Sci. […] See also Deigner et al., Science, 244: 968-71 (1989); […] Parish, et al., Proc. Natl. Acad. Sci. USA, 14609-13 (1998); […] Six-week old dark-adapted CD-1 (albino) male mice were orally gavaged with compound (0.03-3 mg/kg) dissolved in 100 μl corn oil containing 10% ethanol (five animals per group). […] After 2-24 hours in the dark, the mice were exposed to photobleaching of 5,000 lux of white light for 10 minutes. The mice were allowed to recover 2 hours in the dark. The animals were then sacrificed by carbon dioxide inhalation. Retinoids were extracted from the eye and the regeneration of 11-cis-retinal was assessed at various time intervals. All steps were performed in darkness with minimal redlight illumination (low light darkroom lights and […] flashlights for spot illumination as needed) (see, e.g., Maeda et al., J. Neurochem 85:944-956, 2003; Van Hooser et al., J Biol Chem 277:19173-82, 2002). After the mice were sacrificed, the eyes were immediately removed and placed in liquid nitrogen for storage. The eyes were placed in 500 μL of bis-tris propane buffer (10 mM, pH 7.3) and 20 μL of 0.8M hydroxile amine (pH-7.3). The eyes were cut up into small pieces with small iris scissors and then thoroughly homogenized at 30000 rpm with a mechanical homogenizer (Polytron PT 1300 D) in the tube until no visible tissue remained. 500 μL of methanol and 500 μL of heptane were added to each tube. The tubes were attached to a vortexer so that the contents were mixed thoroughly for 15 minutes in room temperature. […] The samples were analyzed on an Agilent 1100 HPLC system with normal phase column: SILICA (Beckman Coutlier, dp 5 μm, […]). The running method has a flow rate of 1.5 ml/min; solvent components are 15% solvent 1 (1% isopropanol in ethyl acetate), and 85% solvent 2 (100% hexanes). Loading volume for each sample is 100 μl; detection wavelength is 360 nm. The area under the curve for 11-cis retinal oxime was calculated by Agilent Chemstation software and was recorded manually. Data processing was performed using Prizm software. Positive control mice (no compound administered) were sacrificed fully dark-adapted and the eye retinoids analyzed. Light (bleached) control mice (no compound administered) were sacrificed and retinoids isolated and analyzed immediately after light treatment. […] Animals that received Compound 19 HCl were orally dosed with 0.01 and 1 mg/kg of compound in sterile water as solution, and photobleached 4 hours after dosing. Recovery and retinoid analysis were performed as described above. Dark control mice were vehicle-only treated, sacrificed fully dark adapted without light treatment, and analyzed. […] A time course study was performed to determine the isomerase inhibitory activity of Compounds 2, 18 and 19. Male Balb/c mice (4/group) received 3 mg Compound 2-HCl, Compound 18-HCl or Compound 19-HCl (in water) per kg bodyweight orally, by gavage. The animals were then “photo-bleached” (5000 Lux white light for 10 minutes) at 2, 4, 8, 16 and 24 hours after dosing, and returned to darkness to allow recovery of the 11-cis-retinal content of the eyes. Mice were sacrificed 2 hours after bleaching, eyes were enucleated, and retinoid content was analyzed by HPLC. A single dose study of the compound of Example 36 (Compound 36) was performed, at 1 mg/kg and 5 mg/kg oral dosing, 2, 4, 6, and 24 hours post bleaching. […]

Read-outs that look alike come from different tables or passages of the source.

On to `NCCC(O)c1cccc(C#CC2CCCC2)c1` (centres unmarked) [Example 47, 3-Amino-1-(3-(cyclopentylethynyl)phenyl)propan-1-ol], for which the inhibition in vivo at 1 mg/kg is, setting by setting: (4 h) 100%; (24 h) 2%.
As to `NCCC(O)c1cccc(C#CCCCCO)c1` (centres unmarked) [Example 50, 6-(3-(3-Amino-1-hydroxypropyl)phenyl)hex-5-yn-1-ol], the inhibition in vivo at 1 mg/kg (4 h) was 13% and the inhibition in vivo at 1 mg/kg (24 h) amounted to 31%.
Consider `NCCC(O)c1cccc(C#CCCO)c1` (centres unmarked) [Example 51, 4-(3-(3-Amino-1-hydroxypropyl)phenyl)but-3-yn-1-ol], for which the inhibition in vivo at 1 mg/kg runs as follows: (4 h) 0%; (24 h) 0%.
For the molecule `NCCC(O)c1cccc(C#CC2CCCCC2)c1` (centres unmarked) [Example 52, 3-Amino-1-(3-(Cyclohexylethynyl)Phenyl)Propan-1-ol], the inhibition in vivo at 1 mg/kg is, setting by setting: (4 h) 72%; (24 h) 2%.
On to `COc1ccccc1C#Cc1cccc(C(O)CCN)c1` (centres unmarked) [Example 54, 3-Amino-1-(3-((2-Methoxyphenyl)Ethynyl)Phenyl)Propan-1-ol], for which the inhibition in vivo at 1 mg/kg runs as follows: (4 h) 67%; (24 h) 58%.
For `NCCOc1cccc(C#CC2(O)CCSCC2)c1` [Example 55, 4-((3-(2-Aminoethoxy)Phenyl)Ethynyl)Tetrahydro-2H-Thiopyran-4-ol], in that order: 16% and 7%.
For `NCCOc1cccc(C#CC2(O)CCCCC2)c1` [Example 57, 1-((3-(2-Aminoethoxy)phenyl)ethynyl)cyclohexanol], in that order: 8% and 21%.
For `NCCC(O)c1cccc(C#CC2(O)CCCCCC2)c1` (centres unmarked) [Example 59, 1-((3-(3-Amino-1-hydroxypropyl)phenyl)ethynyl)cycloheptanol], in that order: 31% and 0%.
For the molecule `CC(=O)NCCCc1cccc(C#CC2(O)CCCCC2)c1` [Example 60, N-(3-(3-((1-Hydroxycyclohexyl)Ethynyl)Phenyl)Propyl)Acetamide], the inhibition in vivo at 1 mg/kg is, setting by setting: (4 h) 10%; (24 h) 9%.
For `NCCCc1cccc(C#Cc2ccccn2)c1` [Example 61, 3-(3-(Pyridin-2-ylethynyl)phenyl)propan-1-amine], in that order: 0% and 0%.
As for `NCCOc1cccc(C#Cc2cccnc2)c1` [Example 62, 2-(3-(Pyridin-3-ylethynyl)phenoxy)ethanamine], the inhibition in vivo at 1 mg/kg was found to be 0% (4 h) and 0% (24 h).
`NCCCc1cccc(C#Cc2ccncc2)c1` [Example 63, 3-(3-(Pyridin-4-ylethynyl)phenyl)propan-1-amine]: the inhibition in vivo at 1 mg/kg runs as follows: (4 h) 11%; (24 h) 0%.
For `NCCC(O)c1cccc(C#CCCc2ccccc2)c1` (centres unmarked) [Example 69, 3-Amino-1-(3-(4-phenylbut-1-ynyl)phenyl)propan-1-ol], in that order: 81% and 10%.
As to `NCCOc1cccc(C#CCCCCO)c1` [Example 74, 6-(3-(2-Aminoethoxy)phenyl)hex-5-yn-1-ol], the inhibition in vivo at 1 mg/kg worked out at 8% (4 h) and 0% (24 h).
For `NCCOc1cccc(C#CC2(O)CCCCCC2)c1` [Example 78, 1-((3-(2-aminoethoxy)phenyl)ethynyl)-cycloheptanol], the inhibition in vivo at 1 mg/kg is, setting by setting: (4 h) 0%; (24 h) 0%.
`NCCOc1cccc(C#CC2CCCC2)c1` [Example 79, 2-(3-(Cyclopentylethynyl)phenoxy)-ethanamine]: the inhibition in vivo at 1 mg/kg by setting is: (4 h) 7%; (24 h) 1%.
For `NCCOc1cccc(C#CC2CCCCC2)c1` [Example 80, 2-(3-(Cyclohexylethynyl)phenoxy)ethanamine], the inhibition in vivo at 1 mg/kg stood at 22% (4 h) and 0% (24 h).
`NCCOc1cccc(C#Cc2ccccc2)c1` [Example 81, 2-(3-(Phenylethynyl)phenoxy)-ethanamine]: the inhibition in vivo at 1 mg/kg is 8% (4 h) and 3% (24 h).
On the same counts, the results for `NCCC(O)c1cccc(C#CC2(O)CCCCC2)c1` (centres unmarked) [Example 99, 1-((3-(3-Amino-1-hydroxypropyl)phenyl)ethynyl)cyclohexanol] are 31% and 0%.
